Data as given in US20260308157A1, “Pyrrolopyrazine Compounds, Preparation Thereof and Therapeutic Uses Thereof” (Sanofi, priority 2023, published 2026).

Assays:
Cellular ERK5 Activity = biological target: T1, Cellular ERK5 Activity (Homo sapiens, UniProt Q13164); experiment: Inhibition of Cellular ERK5 Activity (cell-based assay, MEF2 luciferase reporter in SN12C cells); conditions: renal cancer cell line SN12C, doxycycline-induced MEK5DD, 0.3-10000 nM, mean where repeated
T1 construct: MEF2-response-element luciferase reporter (pGreenFire1)
Procedure: (§1) Two assays were performed to assess the ERK5 inhibitory activity of compounds of the Examples, a cell-based assay and a cell-free biochemical assay. Where repeat measurements were taken, the value reported is a mean average.
Inhibition of Cellular ERK5 Activity
The renal cancer cell line SN12C was transduced by a lentivirus pGreenFire1 MEF2 EF1 Neo (ref TR030VA-N) from SBI using standard infection protocol. pGreenFire1 MEF2 EF1 Neo allows the expression of luciferase gene under the control of minimal promoter with MEF2 transcriptional response elements. Cells harboring the reporter construct were selected by geneticin treatment. The selected cells were then transposed by a piggyback based plasmid pCM4007 allowing the expression of constitutively activated MEK5DD under control of TREG3 promoter, a doxycycline regulated promoter. Transposed cells were selected by puromycin treatment. Upon doxycycline treatment (1 μg/ml) MEK5DD was expressed. MEK5DD activates ERK5 that phosphorylates MEF2C protein. Activated MEF2C protein can bind to its transcriptional response elements. Then the luciferase is expressed. In a 96-well plate (96F nuncleon ref137101 thermofisher), 50,000 cells were inoculated in 142.5 μl of RPMI medium containing 10% fetal calf serum, 1% glutamine, and 1 μg/ml doxycycline. After 24 hours, compounds were added in 7.5 μl culture medium (with 2% DMSO to give a final concentration of 0.1%) in order to obtain the desired concentration (0.3-10000 nM). The luciferase activity was measured using the Kit Bright Glo Luminescent Cell Assay Cat E2610 (Promega) according to the manufacturer's protocol. Luminescence was determined using 0.2 second reading/well using a Tecan SPARK. IC50 values were calculated using XLFIT5 for Microsoft Excel using method 205. The IC50 values represent the concentration of compound which inhibits the measurable luminescence signal by 50% as compared to DMSO-treated control cells.

[1] = biological target: T2, activated catalytic domain of protein ERK5 (Homo sapiens, UniProt Q13164); experiment: Cell-Free Assay of ERK5 Inhibition (Time-Resolved Forster Resonance Energy Transfer); format: biochemical; conditions: ERK5 4 nM, 1 mM ATP, 1 μM biotinylated 4EBP1 peptide, 30 min at 37° C.; TR-FRET; mean where repeated
T2 construct: purchased CarnaBiosciences #04-146
Procedure: as §1
Cell-Free Assay of ERK5 Inhibition
An assay was performed to measure the capacity of each compound to inhibit ERK5 enzymatic activity. Compound potency was evaluated by Time-Resolved Forster Resonance Energy Transfer (FRET system). The activated catalytic domain of protein ERK5 (CarnaBiosciences #04-146) was mixed at 4 nM with varying concentrations of compound and incubated for 30 minutes at room temperature. A mixture of 1 mM ATP and 1 μM biotinylated synthetic peptide was added (Biosyntan GmbH). This synthetic peptide represents amino acids 30-52 of Eukaryotic translation initiation factor 4E-binding protein 1 (see, e.g., the sequence under accession No. NP_004086.1) biotinylated at the N-terminus. After 30 minutes at 37° C., the peptide phosphorylation by ERK5 was measured by addition of FRET reagents consisting of 12.5 µg/ml Streptavidin-XL665, 1 nM Anti-P-4EBP1 antibody and 300 ng/ml Anti-rabbit-K antibody. Following 90 minutes at room temperature fluorescent signals were read on the Pherastar FSX multimod detector from BMG Labtech (Exc° 340 nm, Em1 620 nm, Em2 665 nm). The IC50 values represent the concentration of compound which inhibits the measurable fluorescence signal by […] as compared to the DMSO only control.

T2 sequence (Q13164 55-347 limits assumed): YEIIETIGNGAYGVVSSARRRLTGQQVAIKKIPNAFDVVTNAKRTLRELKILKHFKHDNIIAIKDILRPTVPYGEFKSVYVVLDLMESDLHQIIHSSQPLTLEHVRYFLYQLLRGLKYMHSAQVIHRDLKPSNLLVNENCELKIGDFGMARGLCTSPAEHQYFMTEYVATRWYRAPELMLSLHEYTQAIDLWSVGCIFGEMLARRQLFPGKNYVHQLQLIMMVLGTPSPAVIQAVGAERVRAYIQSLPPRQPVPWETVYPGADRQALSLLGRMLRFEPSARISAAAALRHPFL
T1 sequence (Q13164 whole entry): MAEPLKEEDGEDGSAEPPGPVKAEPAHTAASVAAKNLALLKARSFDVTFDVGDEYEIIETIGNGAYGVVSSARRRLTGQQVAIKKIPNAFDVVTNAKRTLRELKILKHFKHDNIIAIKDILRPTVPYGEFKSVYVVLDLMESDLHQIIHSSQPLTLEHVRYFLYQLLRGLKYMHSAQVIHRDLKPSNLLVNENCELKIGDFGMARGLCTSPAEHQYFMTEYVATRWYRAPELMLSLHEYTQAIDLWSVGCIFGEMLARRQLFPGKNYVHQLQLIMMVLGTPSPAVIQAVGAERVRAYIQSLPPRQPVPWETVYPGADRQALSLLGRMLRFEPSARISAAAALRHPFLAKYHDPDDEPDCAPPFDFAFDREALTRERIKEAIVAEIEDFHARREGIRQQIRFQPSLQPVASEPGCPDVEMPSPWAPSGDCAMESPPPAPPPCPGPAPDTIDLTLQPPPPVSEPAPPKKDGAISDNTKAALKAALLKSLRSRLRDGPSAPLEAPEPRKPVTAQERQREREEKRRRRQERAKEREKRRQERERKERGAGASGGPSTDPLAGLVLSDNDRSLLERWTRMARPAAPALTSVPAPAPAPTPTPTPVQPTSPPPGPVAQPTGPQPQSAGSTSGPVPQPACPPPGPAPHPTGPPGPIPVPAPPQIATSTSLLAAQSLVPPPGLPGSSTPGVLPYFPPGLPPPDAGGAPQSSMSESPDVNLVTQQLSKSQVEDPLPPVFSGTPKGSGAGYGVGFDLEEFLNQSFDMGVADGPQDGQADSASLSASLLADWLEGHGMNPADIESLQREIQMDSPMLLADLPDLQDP

Work on `Nc1cc(OC(F)(F)F)ccc1C(=O)N1CCC(c2c[nH]c3ncc(C4CCN(C5CC5)CC4)nc23)CC1` [Example 10, [2-Amino-4-(trifluoromethoxy)phenyl]-[4-[2-(1-cyclopropyl-4-piperidyl)-5H-pyrrolo[2,3-b]pyrazin-7-yl]-1-piperidyl]methanone] yielded an IC50 (Cellular ERK5 Activity) of 28 nM and an IC50 [1] of 23 nM.
`O=C(c1ccc(OC(F)(F)F)cc1)N1CCC(c2c[nH]c3ncc(C4CCN(C5CC5)CC4)nc23)CC1` [Example 11, [4-[2-(1-Cyclopropyl-4-piperidyl)-5H-pyrrolo[2,3-b]pyrazin-7-yl]-1-piperidyl]-[4-(trifluoromethoxy)phenyl]methanone] gave an IC50 (Cellular ERK5 Activity) of 112 nM and an IC50 [1] of 76 nM.
`CN1CCC(c2cnc3[nH]cc(C4CCN(C(=O)c5ccc(S(F)(F)(F)(F)F)cc5)CC4)c3n2)CC1` [Example 15, [4-[2-(1-Methyl-4-piperidyl)-5H-pyrrolo[2,3-b]pyrazin-7-yl]-1-piperidyl]-[4-(pentafluoro-λ^6-sulfanyl)phenyl]methanone] gave an IC50 (Cellular ERK5 Activity) of 96 nM and an IC50 [1] of 98 nM.
Molecule `CN1CCC(c2cnc3[nH]cc(C4CCN(C(=O)c5ccc(S(F)(F)(F)(F)F)cc5N)CC4)c3n2)CC1` [Example 16, [2-Amino-4-(pentafluoro-λ^6-sulfanyl)phenyl]-[4-[2-(1-methyl-4-piperidyl)-5H-pyrrolo[2,3-b]pyrazin-7-yl]-1-piperidyl]methanone] has an IC50 (Cellular ERK5 Activity) of 25 nM and an IC50 [1] of 38 nM.
In the case of `O=C(c1ccc(S(F)(F)(F)(F)F)cc1)N1CCC(c2c[nH]c3ncc(C4CCOCC4)nc23)CC1` [Example 17, [4-(pentafluoro-λ^6-sulfanyl)phenyl]-[4-(2-tetrahydropyran-4-yl-5H-pyrrolo[2,3-b]pyrazin-7-yl)-1-piperidyl]methanone], the IC50 (Cellular ERK5 Activity) is reported as 140 nM and the IC50 [1] is reported as 578 nM.
Work on `Nc1cc(S(F)(F)(F)(F)F)ccc1C(=O)N1CCC(c2c[nH]c3ncc(C4CCOCC4)nc23)CC1` [Example 18, [2-Amino-4-(pentafluoro-λ^6-sulfanyl)phenyl]-[4-(2-tetrahydropyran-4-yl-5H-pyrrolo[2,3-b]pyrazin-7-yl)-1-piperidyl]methanone] yielded an IC50 (Cellular ERK5 Activity) of 34 nM and an IC50 [1] of 330 nM.
Work on `Nc1cc(S(F)(F)(F)(F)F)ccc1C(=O)N1CCC(c2c[nH]c3ncc(C4CCN(C5CC5)CC4)nc23)CC1` [Example 19, [2-Amino-4-(pentafluoro-λ^6-sulfanyl)phenyl]-[4-[2-(1-cyclopropyl-4-piperidyl)-5H-pyrrolo[2,3-b]pyrazin-7-yl]-1-piperidyl]methanone] yielded an IC50 (Cellular ERK5 Activity) of 94 nM and an IC50 [1] of 176 nM.
In the case of `O=C(c1ccc(S(F)(F)(F)(F)F)cc1)N1CCC(c2c[nH]c3ncc(C4CCN(C5CC5)CC4)nc23)CC1` [Example 20, [4-[2-(1-Cyclopropyl-4-piperidyl)-5H-pyrrolo[2,3-b]pyrazin-7-yl]-1-piperidyl]-[4-(pentafluoro-λ^6-sulfanyl)phenyl]methanone], the IC50 (Cellular ERK5 Activity) is reported as 201 nM and the IC50 [1] is reported as 282 nM.
Work on `O=C(c1ccc(OC2CC2)cc1)N1CCC(c2c[nH]c3ncc(C4CCOCC4)nc23)CC1` [Example 21, [4-(Cyclopropoxy)phenyl]-[4-(2-tetrahydropyran-4-yl-5H-pyrrolo[2,3-b]pyrazin-7-yl)-1-piperidyl]methanone] yielded an IC50 (Cellular ERK5 Activity) of 352 nM and an IC50 [1] of 359 nM.
`O=C(c1ccc(C(F)(F)C(F)(F)F)cc1)N1CCC(c2c[nH]c3ncc(C4CCOCC4)nc23)CC1` [Example 22, [4-(1,1,2,2,2-Pentafluoroethyl)phenyl]-[4-(2-tetrahydropyran-4-yl-5H-pyrrolo[2,3-b]pyrazin-7-yl)-1-piperidyl]methanone] gave an IC50 (Cellular ERK5 Activity) of 279 nM and an IC50 [1] of 1140 nM.
Molecule `O=C(C1CCCCC1)N1CCC(c2c[nH]c3ncc(C4CCOCC4)nc23)CC1` [Example 23, Cyclohexyl-[4-(2-tetrahydropyran-4-yl-5H-pyrrolo[2,3-b]pyrazin-7-yl)-1-piperidyl]methanone] has an IC50 (Cellular ERK5 Activity) of 4800 nM and an IC50 [1] of 13300 nM.
Work on `O=C(c1ccc(S(F)(F)(F)(F)F)cc1F)N1CCC(c2c[nH]c3ncc(C4CCOCC4)nc23)CC1` [Example 26, [2-Fluoro-4-(pentafluoro-λ^6-sulfanyl)phenyl]-[4-(2-tetrahydropyran-4-yl-5H-pyrrolo[2,3-b]pyrazin-7-yl)-1-piperidyl]methanone] yielded an IC50 (Cellular ERK5 Activity) of 149 nM and an IC50 [1] of 624 nM.
Work on `Nc1cc(OC(F)(F)F)ccc1C(=O)N1CCC(c2c[nH]c3ncc(NC4COC4)nc23)CC1` [Example 27, [2-amino-4-(trifluoromethoxy)phenyl]-[4-[2-(oxetan-3-ylamino)-5H-pyrrolo[2,3-b]pyrazin-7-yl]-1-piperidyl]methanone] yielded an IC50 (Cellular ERK5 Activity) of 5430 nM and an IC50 [1] of 5560 nM.
`Nc1cc(OC(F)(F)F)ccc1C(=O)N1CCC(c2c[nH]c3ncc(O[C@@H]4CCOC4)nc23)CC1` [Example 28, [2-amino-4-(trifluoromethoxy)phenyl]-[4-[2-[(3R)-tetrahydrofuran-3-yl]oxy-5H-pyrrolo[2,3-b]pyrazin-7-yl]-1-piperidyl]methanone] gave an IC50 (Cellular ERK5 Activity) of 190 nM and an IC50 [1] of 405 nM.
`Nc1cc(OC(F)(F)F)ccc1C(=O)N1CCC(c2c[nH]c3ncc(O[C@H]4CCOC4)nc23)CC1` [Example 29, [2-amino-4-(trifluoromethoxy)phenyl]-[4-[2-[(3S)-tetrahydrofuran-3-yl]oxy-5H-pyrrolo[2,3-b]pyrazin-7-yl]-1-piperidyl]methanone] showed an IC50 (Cellular ERK5 Activity) of 215 nM and an IC50 [1] of 399 nM.
For `CN1CCN(c2cnc3[nH]cc(C4CCN(C(=O)c5ccc(OC(F)(F)F)cc5)CC4)c3n2)CC1` [Example 31, [4-[2-(4-methylpiperazin-1-yl)-5H-pyrrolo[2,3-b]pyrazin-7-yl]-1-piperidyl]-[4-(trifluoromethoxy)phenyl]methanone, formic acid], the IC50 (Cellular ERK5 Activity) was 86 nM and the IC50 [1] was 189 nM.
`O=C(c1ccc(OC(F)(F)F)cc1)N1CCC(c2c[nH]c3ncc(NC4CCOCC4)nc23)CC1` [Example 38, [4-[2-(tetrahydropyran-4-ylamino)-5H-pyrrolo[2,3-b]pyrazin-7-yl]-1-piperidyl]-[4-(trifluoromethoxy)phenyl]methanone] was tested, and the IC50 (Cellular ERK5 Activity) was 166 nM and the IC50 [1] was 993 nM.
With `Nc1cc(OC(F)(F)F)ccc1C(=O)N1CCC(c2c[nH]c3ncc(NC4CCOCC4)nc23)CC1` [Example 39, [2-amino-4-(trifluoromethoxy)phenyl]-[4-[2-(tetrahydropyran-4-ylamino)-5H-pyrrolo[2,3-b]pyrazin-7-yl]-1-piperidyl]methanone] the IC50 (Cellular ERK5 Activity) was 37 nM and the IC50 [1] was 307 nM.
For `O=C(c1ccc(OC(F)(F)F)cc1)N1CCC(c2c[nH]c3ncc(N4CCOCC4)nc23)CC1` [Example 40, [4-(2-morpholino-5H-pyrrolo[2,3-b]pyrazin-7-yl)-1-piperidyl]-[4-(trifluoromethoxy)phenyl]methanone], the IC50 (Cellular ERK5 Activity) was 180 nM and the IC50 [1] was 1010 nM.
Work on `O=C(c1ccc(OC(F)(F)F)cc1)N1CCC(c2c[nH]c3ncc(N4CCC(F)(F)CC4)nc23)CC1` [Example 41, [4-[2-(4,4-difluoro-1-piperidyl)-5H-pyrrolo[2,3-b]pyrazin-7-yl]-1-piperidyl]-[4-(trifluoromethoxy)phenyl]methanone] yielded an IC50 (Cellular ERK5 Activity) of 308 nM and an IC50 [1] of over 30000 nM.
`O=C(c1ccc(C(O)(C(F)(F)F)C(F)(F)F)cc1)N1CCC(c2c[nH]c3ncc(C4CCOCC4)nc23)CC1` [Example 42, [4-(2-tetrahydropyran-4-yl-5H-pyrrolo[2,3-b]pyrazin-7-yl)-1-piperidyl]-[4-[2,2,2-trifluoro-1-hydroxy-1-(trifluoromethyl)ethyl]phenyl]methanone] was tested, and the IC50 (Cellular ERK5 Activity) was 480 nM and the IC50 [1] was over 30000 nM.
For `Nc1cc(OC(F)(F)F)ccc1C(=O)N1CCC(c2c[nH]c3ncc(OC4COC4)nc23)CC1` [Example 44, [2-amino-4-(trifluoromethoxy)phenyl]-[4-[2-(oxetan-3-yloxy)-5H-pyrrolo[2,3-b]pyrazin-7-yl]-1-piperidyl]methanone], the IC50 (Cellular ERK5 Activity) was 272 nM and the IC50 [1] was 639 nM.
